Experimental data: the NIST ThermoML archive (doi:10.1016/j.jct.2017.05.001)

Assay: wn = mass fraction of the nth substance listed
Conditions: Liquid; for viscosity: Falling or rolling sphere viscometry; for mass density: Vibrating tube method

OCCN(CCO)CCO [triethanolamine] + O
Conditions | mass density, w1 = 0.0992 [kg/m3] | mass density, w1 = 0.2 [kg/m3] | mass density, w1 = 0.2991 [kg/m3] | mass density, w1 = 0.4 [kg/m3] | viscosity, w1 = 0.0992 [mPa·s] | viscosity, w1 = 0.2 [mPa·s] | viscosity, w1 = 0.2991 [mPa·s] | viscosity, w1 = 0.4 [mPa·s]
373.15 K, 30000 kPa | 985.1 | 998.4 | 1012.5 | 1027.7 | 0.3632 | 0.4601 | 0.6109 | 0.8363
373.15 K, 40000 kPa | 989.4 | 1002.6 | 1016.8 | 1032 | 0.3659 | 0.4638 | 0.6193 | 0.8525
373.15 K, 50000 kPa | 993.4 | 1006.7 | 1020.7 | 1035.7 | – | – | – | –
373.15 K, 60000 kPa | 997.4 | 1010.6 | 1024.6 | 1039.7 | 0.3738 | 0.4753 | 0.6379 | 0.8789
373.15 K, 70000 kPa | 1001.4 | 1014.5 | 1028.4 | 1043.5 | – | – | – | –
373.15 K, 80000 kPa | 1005.3 | 1018.5 | 1032.4 | 1047.3 | 0.3807 | 0.4864 | 0.655 | 0.9114
373.15 K, 90000 kPa | 1009.1 | 1022.1 | 1036 | 1050.8 | – | – | – | –
373.15 K, 100000 kPa | 1012.7 | 1025.7 | 1039.5 | 1054.3 | 0.3871 | 0.4953 | 0.6721 | 0.9403
373.15 K, 110000 kPa | 1016.4 | 1029.4 | 1043.1 | 1057.9 | – | – | – | –
373.15 K, 120000 kPa | 1019.9 | 1032.9 | 1046.8 | 1061.3 | – | – | – | –
373.15 K, 130000 kPa | 1023.3 | 1036.2 | 1050.1 | 1064.6 | – | – | – | –
373.15 K, 140000 kPa | 1026.8 | 1039.7 | 1053.4 | 1067.8 | – | – | – | –
393.15 K, 100 kPa | 956.1 | 969.2 | 982.9 | 998.1 | – | – | – | –
393.15 K, 500 kPa | 956.4 | 969.5 | 983.3 | 998.5 | – | – | – | –
393.15 K, 1000 kPa | 956.6 | 969.7 | 983.5 | 998.6 | – | – | – | –
393.15 K, 2000 kPa | 957.1 | 970.2 | 984 | 999.1 | – | – | – | –
393.15 K, 5000 kPa | 958.6 | 971.7 | 985.5 | 1000.6 | 0.2913 | 0.3551 | 0.4515 | 0.5873
393.15 K, 10000 kPa | 961.1 | 974.2 | 988 | 1003.1 | 0.2912 | 0.3579 | 0.4583 | 0.5948
393.15 K, 15000 kPa | 963.4 | 976.5 | 990.3 | 1005.4 | 0.2933 | 0.3633 | 0.4629 | 0.6019
393.15 K, 20000 kPa | 965.9 | 978.9 | 992.7 | 1007.8 | 0.295 | 0.362 | 0.4675 | 0.609
393.15 K, 25000 kPa | – | – | – | – | 0.2963 | 0.3674 | 0.4703 | 0.6136
393.15 K, 30000 kPa | 970.4 | 983.5 | 997.3 | 1012.4 | 0.2988 | 0.3659 | 0.4738 | 0.6246
393.15 K, 40000 kPa | 974.9 | 988 | 1001.8 | 1016.7 | 0.3022 | 0.3704 | 0.4822 | 0.6362
393.15 K, 50000 kPa | 979.2 | 992.3 | 1006 | 1021 | – | – | – | –
393.15 K, 60000 kPa | 983.5 | 996.5 | 1010.2 | 1025.2 | 0.308 | 0.3798 | 0.4973 | 0.6588
393.15 K, 70000 kPa | 987.7 | 1000.7 | 1014.4 | 1029.3 | – | – | – | –
393.15 K, 80000 kPa | 991.7 | 1004.6 | 1018.3 | 1033.1 | 0.3138 | 0.3888 | 0.5121 | 0.6835
393.15 K, 90000 kPa | 995.7 | 1008.6 | 1022.3 | 1037.1 | – | – | – | –
393.15 K, 100000 kPa | 999.4 | 1012.3 | 1026.1 | 1040.7 | 0.32 | 0.3982 | 0.5378 | 0.7054
393.15 K, 110000 kPa | 1003.3 | 1016.1 | 1029.8 | 1044.5 | – | – | – | –
393.15 K, 120000 kPa | 1006.9 | 1019.8 | 1033.4 | 1048.1 | – | – | – | –
393.15 K, 130000 kPa | 1010.4 | 1023.4 | 1036.9 | 1051.5 | – | – | – | –
393.15 K, 140000 kPa | 1014.1 | 1026.9 | 1040.5 | 1055 | – | – | – | –
